Data on 3 molecules can be found in US20210284668A1, “GOLD (I)-PHOSPHINE 1,2,3-TRIAZOLE DERIVATIVES WITH ANTIBIOTIC PROPERTIES” (Centre National de la Recherche Scientifique, priority 2018, published 2021).

In one assay the test system is S. aureus ATCC25923. The assay is described as follows: MIC by microdilution, S. aureus ATCC25923. The class given is cell-based, Staphylococcus aureus. The following applies: S. aureus ATCC25923 (MecA negative, wild-type), Mueller-Hinton broth, in duplicate. In short, it runs like this:
(§1)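 Broth microdilution per CLSI (M07-A10) in Mueller-Hinton broth, run in duplicate; MIC recorded as minimal inhibitory concentration. Panel spans wild-type to multidrug-resistant strains, e.g. S. aureus ATCC700699 (MecA+, glycopeptide resistant), S. epidermidis ATCC35984 (MecA+), E. coli ATCC25922 (wild-type).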
On the technique in general: In broth dilution the organism is exposed to a series of concentrations in liquid medium.

Another assay concerns S. aureus ATCC29213. The assay is described as follows: MIC by microdilution, S. aureus ATCC29213. Format: cell-based, Staphylococcus aureus. Conditions: S. aureus ATCC29213 (MecA negative, wild-type), Mueller-Hinton broth, in duplicate. In outline:
as §1

The subject of a further assay is S. aureus ATCC700699. The assay is described as follows: MIC by microdilution, S. aureus ATCC700699. The class given is cell-based, Staphylococcus aureus. Set-up: unit not given here. The following applies: S. aureus ATCC700699 (MecA positive, glycopeptide resistant), in duplicate. In outline: as §1
For a further assay, the system named is S. aureus ST20131365. Briefly: MIC by microdilution, S. aureus ST20131365. The class given is cell-based, Staphylococcus aureus. Conditions: S. aureus ST20131365 (MecA positive, glycopeptide resistant), in duplicate. In short, it runs like this:
as §1

Another assay has as its system S. epidermidis ATCC14990. Briefly: MIC by microdilution, S. epidermidis ATCC14990. The following applies: S. epidermidis ATCC14990 (MecA negative, wild-type), in duplicate. Format: cell-based, Staphylococcus epidermidis. In outline:
as §1

A further assay has as its system S. epidermidis ATCC35984. The assay is described as follows: MIC by microdilution, S. epidermidis ATCC35984. The class given is cell-based, Staphylococcus epidermidis. Conditions: S. epidermidis ATCC35984 (MecA positive), in duplicate. In short, it runs like this:
as §1

Assay [1] has as its system S. epidermidis ST20140436. The assay is described as follows: MIC by microdilution, S. epidermidis ST20140436. The class given is cell-based, Staphylococcus epidermidis. The following applies: S. epidermidis ST20140436 (MecA positive, glycopeptide resistant), in duplicate. In short, it runs like this: as §1
Assay [2] concerns S. epidermidis ST20150446. Briefly: MIC by microdilution, S. epidermidis ST20150446. The class given is cell-based, Staphylococcus epidermidis. The following applies: S. epidermidis ST20150446 (MecA positive, glycopeptide resistant), in duplicate. In outline:
as §1

The subject of the next assay is E. faecalis JH2-2. Briefly: MIC by microdilution, E. faecalis JH2-2. The class given is cell-based, Enterococcus faecalis. Further details: unit not given here. Conditions: E. faecalis JH2-2 (wild-type), in duplicate. In short, it runs like this:
as §1

A further assay has as its system E. faecalis UCN41. The assay is described as follows: MIC by microdilution, E. faecalis UCN41. The class given is cell-based, Enterococcus faecalis. Set-up: unit not given here. Conditions: E. faecalis UCN41 (VanA positive, glycopeptide resistant), in duplicate. In short, it runs like this: as §1
The subject of the next assay is E. faecalis V583. Briefly: MIC by microdilution, E. faecalis V583. Conditions: E. faecalis V583 (VanB positive, glycopeptide resistant), in duplicate. The class given is cell-based, Enterococcus faecalis. In short, it runs like this:
as §1

In another assay the test system is E. faecium ATCC19434T. The assay is described as follows: MIC by microdilution, E. faecium ATCC19434T. Format: cell-based, Enterococcus faecium. Set-up: unit not given here. Conditions: E. faecium ATCC19434T (wild-type), in duplicate. In outline: as §1
The subject of a further assay is E. faecium BM4147. The assay is described as follows: MIC by microdilution, E. faecium BM4147. Further details: unit not given here. The class given is cell-based, Enterococcus faecium. The following applies: E. faecium BM4147 (VanA positive, glycopeptide resistant), in duplicate. In short, it runs like this: as §1
Another assay concerns E. faecium AUS0004. The assay is described as follows: MIC by microdilution, E. faecium AUS0004. The following applies: E. faecium AUS0004 (VanB positive, glycopeptide resistant), in duplicate. Format: cell-based, Enterococcus faecium. In outline: as §1
The subject of the next assay is E. coli ATCC25922. Briefly: MIC by microdilution, E. coli ATCC25922. Format: cell-based, Escherichia coli. The following applies: E. coli ATCC25922 (wild-type), in duplicate. In outline: as §1
In assay [3] the test system is Clostridium difficile ATCC700057. Briefly: MIC by microdilution, Clostridium difficile. The class given is cell-based. Conditions: strain ATCC70057 [sic] (Tables 1-2) / ATCC700057 (Tables 3-10), in duplicate.
Assay [4] has as its system panel of Gram-positive and Gram-negative strains. Briefly: Antibacterial profile on the selected panel of strains. Format: cell-based. Conditions: summary of Tables 1-12. In short, it runs like this: as §1

“And” between values parts separate entries of the source, which are not always exact repeats. Equal values may be shown once.

On to `CC[P+](CC)(CC)[Au-][c]1nn[nH]c1COC(=O)NC(C(=O)O)c1ccccc1` (centres unmarked) [TMB1], for which the “Minimal Inhibitory Concentration (MIC)” value in the assay with S. aureus ATCC25923 was 0.125; in the assay on S. aureus ATCC29213, 0.125; in the assay with S. aureus ATCC700699, 0.125 and 0.25; in the assay on S. aureus ST20131365, 0.125; with S. epidermidis ATCC14990, at most 0.06; with S. epidermidis ATCC35984 it was at most 0.06. Also, the “Minimal Inhibitory Concentration (MIC)” value in assay [1] is at most 0.06; in [2] it was at most 0.06; in the assay on E. faecalis JH2-2, 0.25 and 0.5; in the assay with E. faecalis UCN41, 0.5; in the assay on E. faecalis V583 it was 0.5 and 1; in the assay on E. faecium ATCC19434T, 0.5. For the same molecule, the “Minimal Inhibitory Concentration (MIC)” value in the assay with E. faecium BM4147 was 1; in the assay on E. faecium AUS0004, 0.5; with E. coli ATCC25922 it was over 8; in [3], at most 0.06. Moreover, the “antimicrobial / antibacterial activity (in words)” value in [4] is on record as “have antimicrobial activity”.
`CC[P+](CC)(CC)[Au-][c]1nn[nH]c1CCC(=O)NC(C(=O)NC1C(=O)N2C1SC(C)(C)C2C(=O)O)c1ccccc1` (centres unmarked) [TMB4]: the “Minimal Inhibitory Concentration (MIC)” value in the assay on S. aureus ATCC25923 is given as 0.125; in the assay on S. aureus ATCC29213, 0.125; in the assay with S. aureus ATCC700699 it was 0.125; with S. aureus ST20131365 it was 0.125; in the assay on S. epidermidis ATCC14990, at most 0.06; in the assay on S. epidermidis ATCC35984, at most 0.06. In addition, the “Minimal Inhibitory Concentration (MIC)” value in assay [1] was at most 0.06; in [2], 0.125; with E. faecalis UCN41, 0.5; in the assay with E. faecalis V583, 0.5; in the assay with E. faecium ATCC19434T, 0.5; in the assay with E. faecium BM4147 it was 1. In addition, the results for the “Minimal Inhibitory Concentration (MIC)” value (in the assay on E. faecium AUS0004; in the assay on E. coli ATCC25922; in assay [3]) were 0.5, over 8 and ≤0.06-0.125, respectively. Also, in assay [4], the “antimicrobial / antibacterial activity (in words)” value is “have antimicrobial activity”.
Turning to `CC1(C)S[C@@H]2[C@H](NC(=O)[C@H](NC(=O)OCc3cnn[nH]3)c3ccccc3)C(=O)N2[C@H]1C(=O)O` [TMB5], the “Minimal Inhibitory Concentration (MIC)” value is recorded as 2 in the assay on S. aureus ATCC25923; 2 with S. aureus ATCC29213; over 8 with S. aureus ATCC700699; over 8 with S. aureus ST20131365; 1 in the assay on S. epidermidis ATCC14990; over 8 with S. epidermidis ATCC35984. Further, the “Minimal Inhibitory Concentration (MIC)” value in assay [1] is 8/>8; in assay [2] it was over 8; in the assay on E. faecalis JH2-2 it was 2 and 4; in the assay with E. faecalis UCN41 it was 8; in the assay with E. faecalis V583 it was 4; in the assay with E. faecium ATCC19434T, 8. The “Minimal Inhibitory Concentration (MIC)” value with E. faecium BM4147 was over 8; in the assay on E. faecium AUS0004 it was over 8; in the assay on E. coli ATCC25922, over 8; in assay [3], 4. The “antimicrobial / antibacterial activity (in words)” value in assay [4] is listed as “do not show an antibacterial activity”.
